Laboratory results from patent US20140010939A1, “Sweetness Enhancers, Sweetener Compositions, Methods of Making the Same and Consumables Containing the Same” (Nutrinova Nutrition Specialties & Food Ingredients GmbH, priority 2011, published 2014).
“Also recorded” adds a separate entry of the source.

Molecular target: T1, heterodimeric hT1R2/hT1R3 sweet taste receptor (Homo sapiens, UniProt Q7RTX0+Q8TE23)
T1 construct: expressed in transfected cells
T1 sequence (Q8TE23 20-839): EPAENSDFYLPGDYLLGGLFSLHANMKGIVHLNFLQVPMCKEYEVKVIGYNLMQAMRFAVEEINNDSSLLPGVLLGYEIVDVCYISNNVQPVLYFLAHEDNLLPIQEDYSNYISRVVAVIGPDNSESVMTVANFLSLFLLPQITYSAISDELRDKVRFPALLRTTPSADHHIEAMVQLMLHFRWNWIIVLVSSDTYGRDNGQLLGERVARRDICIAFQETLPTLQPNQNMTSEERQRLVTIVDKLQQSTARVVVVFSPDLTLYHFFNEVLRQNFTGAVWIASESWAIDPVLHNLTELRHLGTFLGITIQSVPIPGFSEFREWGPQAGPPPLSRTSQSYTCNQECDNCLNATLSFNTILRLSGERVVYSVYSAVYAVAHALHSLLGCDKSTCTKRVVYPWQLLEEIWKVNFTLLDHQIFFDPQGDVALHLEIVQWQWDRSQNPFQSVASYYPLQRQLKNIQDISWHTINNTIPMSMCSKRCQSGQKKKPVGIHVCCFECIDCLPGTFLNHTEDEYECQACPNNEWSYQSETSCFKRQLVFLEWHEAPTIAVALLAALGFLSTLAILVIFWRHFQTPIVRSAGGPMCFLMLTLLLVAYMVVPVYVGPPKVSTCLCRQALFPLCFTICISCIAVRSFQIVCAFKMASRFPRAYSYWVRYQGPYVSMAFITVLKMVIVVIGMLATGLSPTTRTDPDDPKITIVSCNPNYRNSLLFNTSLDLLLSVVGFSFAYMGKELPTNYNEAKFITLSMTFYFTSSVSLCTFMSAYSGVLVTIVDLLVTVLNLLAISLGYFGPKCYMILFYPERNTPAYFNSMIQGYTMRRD
T1 sequence (Q7RTX0 21-852): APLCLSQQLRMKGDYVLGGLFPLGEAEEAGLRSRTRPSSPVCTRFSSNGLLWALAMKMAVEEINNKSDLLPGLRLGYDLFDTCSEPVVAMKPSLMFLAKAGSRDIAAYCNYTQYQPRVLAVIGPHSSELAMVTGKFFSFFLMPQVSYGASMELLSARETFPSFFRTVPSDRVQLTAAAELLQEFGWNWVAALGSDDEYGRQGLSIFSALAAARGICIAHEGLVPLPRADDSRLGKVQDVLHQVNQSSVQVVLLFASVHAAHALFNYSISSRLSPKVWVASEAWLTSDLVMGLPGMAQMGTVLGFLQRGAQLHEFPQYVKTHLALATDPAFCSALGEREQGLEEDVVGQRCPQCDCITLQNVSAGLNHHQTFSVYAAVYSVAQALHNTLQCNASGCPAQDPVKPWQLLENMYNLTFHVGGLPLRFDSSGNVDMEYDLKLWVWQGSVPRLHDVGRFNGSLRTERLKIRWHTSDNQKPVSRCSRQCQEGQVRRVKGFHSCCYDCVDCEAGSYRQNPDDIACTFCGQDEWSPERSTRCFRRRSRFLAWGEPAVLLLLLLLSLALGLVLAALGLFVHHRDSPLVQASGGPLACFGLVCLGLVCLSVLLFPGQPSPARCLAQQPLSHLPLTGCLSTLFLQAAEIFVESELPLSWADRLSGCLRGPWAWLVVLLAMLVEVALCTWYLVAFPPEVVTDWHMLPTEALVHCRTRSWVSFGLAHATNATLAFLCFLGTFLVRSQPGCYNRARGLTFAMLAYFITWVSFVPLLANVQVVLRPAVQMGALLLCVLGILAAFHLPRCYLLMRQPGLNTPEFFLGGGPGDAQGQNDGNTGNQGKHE
Assay: Recombinant human taste receptor T1R2/T1R3 dependent cell based assay (calcium, Fluo4-AM fluorescence)
Experimental: For measurement of human T1R2/T1R3 taste receptor dependent activity a control cell line without sweet receptor based on HEK 293 and a cell line expressing the sweet receptor hT1R2/hT1R3 based on HEK 293, respectively, are seeded into assay plates and labelled with the calcium sensitive fluorescence dye Fluo4-AM in a culture medium. The potential modulators, e.g. the test compound, are added to the control cell line and to the cell line expressing the sweet receptor hT1R2/hT1R3, respectively.
A stable cell line based on HEK293 was termed HEKα15#17 served as control for functional Ga-protein and a stable cell line HEKGα15#17R2R3b#8 C6 served as cell line expressing the sweet receptor hT1R2/hT1R3 based on HEKGα15#17.
The cells were cultured in DMEM/HG and 10% FCS Gold, 4 mM L-Glutamin, 1,3 mg/ml Geneticin (HEKGα15#17) or the same medium additionally containing 6 μg/ml Blasticidin (HEKGα15#17R2R3b#8 C6). The medium for the assay was DMEM/HG (high glucose, 4.5 g/l glucose, Life Technologies) and 10% FCS Gold, 4 mM L-Glutamin (HEKGα15#17) or DMEM/LG (low glucose, 1 g/l glucose; Life Technologies) and 10% FCS Gold (HEKGα15#17R2R3b#8C6), respectively.
In order to evaluate the sweet receptor modulating activity of the compound of formula (Ia), compound of formula (Ia) was added to the cultures in a concentration of 25 μM in a volume of 50 μl. Controls were KH-buffer (Krebs HEPES-buffer: 118 mM NaCl, 4.7 mM KCl, 1.2 mM MgSO4, 1.2 mM KH2PO4, 4.2 mM NaHCO3, 1.3 mM CaCl2, 10 mM Hepes, pH 7.4) either without or with sweetness enhancer.
Further controls for function of G-protein and receptor were isoproterenol (1 μM, Sigma Aldrich), ionomycin (1 μM, Calbiochem) and ATP (1 μM, Applichem). […]
On day 2 the cells were seeded into assay plates at a density of 25,000 cells/well. Assay plates for fluorescence measurement (black clear bottom 96-cavity plates, Greiner Bio-One) were coated with poly-D-lysine. […]

Fluo4-AM fluorescence increase (cellular activation) (primary screening, receptor carrying cells only, FIG. 1 sixth bar): strong cellular activation
Structure (SMILES): CC(=O)N(O)CCCCCNC(=O)C(O)(CC(=O)O)CC(=O)NCCCN(O)C(C)=O (stereo not drawn) [compound of formula (Ia)]
Enhancement of the activity of fructose (sweetness enhancer activity in vitro) (25 μM with fructose (20 mM) versus KH buffer/fructose): fructose enhancer; also recorded: enhances the activity of fructose
Time response in the cell assay (measured over a period of 78 seconds, FIG. 2 / inserted graph): selective stimulation of receptor carrying cells
